The text below walks through data of patent US20250092064A1, “BENZOTRIAZOLE COMPOUND” (DAIICHI SANKYO COMPANY, LIMITED, priority 2022, published 2025).

Molecules are shown by their SMILES. Bounds are passed on as bounds.

In experiment [1] the test system is NQO1 activity in Hepa1c1c7 cells. Put plainly: NAD(P)H: quinone oxidoreductase-1 (NQO1) enzyme induction assay (in vitro). The class given is cell-based, mouse. The note with it: Mus musculus, Hepa-1c1c7, NQO1 activity with 400 nM test compound as a ratio from the base without compound, about 48 hr. As for the experimental part: The NQO1 assay was performed based on a previous report (Methods in Enzymology 2004; 382: 243-258). Hepa1c1c7 cells (mouse hepatocyte cell line, ATCC, cat. no. CRL-2026) were cultured in D-MEM medium containing 10% FBS and 1% penicillin/streptomycin (5% CO2, 37° C.), and seeded into 96-well plates (Corning REF. 353072) at 1×10^4 cells/well. A portion of the wells were prepared with medium only for background measurement without seeding cells. The next day, 400 nM of the test compound (0.004% of the final concentration in DMSO) dissolved in DMSO was added thereto, and the wells were incubated for about 48 hr. A well without adding the test compound was prepared for base activity assay in part. […] After the medium was removed, 50 μL of the cell lysate was added and incubated at 37° C. for 10 minutes, followed by shaking at room temperature for 10 minutes. 200 μL of reaction solution was added thereto, and allowed to stand for 5 minutes at room temperature. 50 μL of the stop solution was added thereto, and absorbance was measured at 610 nm on a SpectraMax PLUS384 (Molecular devices) or […] Pharma Biomedical). The test results were analyzed in Excel, and the NQO1 activity upon addition of 400 nM of test compound was calculated as a ratio from the base without the compound. NQO1 activity ratio when test compound is added=(absorbance when test compound is added-absorbance of medium only)/(absorbance without addition of compound-absorbance of medium only) [numerical formula 2] The results of each test compound in this test are shown in the following Table 2 (A:5<NQO1 activity ratio, B:3<NQO1 activity ratio≤5).

Experiment [2] has as its target binding between Nrf2 and Keap1 (Homo sapiens (Human), UniProt Q14145). As to the kind of experiment: FP assay (in vitro): inhibition of Nrf2-Keap1 binding by fluorescence polarization. The note with it: GST-fused human Keap1 (325-642) 20 nM, FITC-labeled Nrf2 peptide 10 nM, 2 hr at room temperature. For orientation: Fluorescence polarisation rises when a labelled molecule tumbles more slowly, as on binding a larger partner.

binding between Nrf2 and Keap1, sequence (Q14145 325-624 limits assumed): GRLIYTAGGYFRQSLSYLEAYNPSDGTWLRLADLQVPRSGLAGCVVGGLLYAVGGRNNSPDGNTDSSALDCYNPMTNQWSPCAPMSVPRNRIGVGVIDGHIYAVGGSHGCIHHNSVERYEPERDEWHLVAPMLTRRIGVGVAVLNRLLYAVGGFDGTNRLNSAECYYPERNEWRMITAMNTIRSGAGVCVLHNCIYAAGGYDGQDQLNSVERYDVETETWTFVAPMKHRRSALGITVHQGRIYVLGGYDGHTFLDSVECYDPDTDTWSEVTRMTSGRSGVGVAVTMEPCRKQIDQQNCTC

As to `C[C@@H]1CN(Cc2cc(C(CC(=O)O)c3ccc4c(nnn4C)c3F)cc3c2CCC3)S(=O)(=O)c2ccccc2O1` (stereo partly drawn) [Example 6, 3-(4-Fluoro-1-methyl-1H-benzotriazol-5-yl)-3-(7-{[(4R)-4-methyl-1,1-dioxido-3,4-dihydro-2H-5,1,2-benzoxathiazepin-2-yl]methyl}-2,3-dihydro-1H-inden-5-yl)propanoic acid], the fold induction (commonly the ratio of treated to control signal) at 0.4 µM in experiment [1] was greater than 5. In addition, the half-inhibitory concentration (IC50) (in general, the point on the concentration scale where inhibition reaches its midpoint) in experiment [2] was no more than 10 nM.

Regarding `CCOc1ccc2c(n1)O[C@H](CC)CN(Cc1cc(C(CC(=O)O)c3ccc4c(nnn4C)c3C)cc3c1CCC3)S2(=O)=O` (stereo partly drawn) [Example 9, 3-(1,4-Dimethyl-1H-benzotriazol-5-yl)-3-(7-{[(4R)-7-ethoxy-4-ethyl-1,1-dioxido-3,4-dihydro-2H-pyrido[2,3-b][1,4,5]oxathiazepin-2-yl]methyl}-2,3-dihydro-1H-inden-5-yl)propanoic acid], the fold induction at 0.4 µM in experiment [1] was greater than 5. In experiment [2], this compound gave a half-maximal inhibitory concentration (IC50) of 10 to 30 nM.

`CC[C@@H]1CN(Cc2cc(C(CC(=O)O)c3ccc4c(nnn4C)c3C)cc3c2CCC3)S(=O)(=O)c2cc(C)cnc2O1` (stereo partly drawn) [Example 10, 3-(1,4-Dimethyl-1H-benzotriazol-5-yl)-3-(7-{[(4R)-4-ethyl-8-methyl-1,1-dioxido-3,4-dihydro-2H-pyrido[2,3-b][1,4,5]oxathiazepin-2-yl]methyl}-2,3-dihydro-1H-inden-5-yl)propanoic acid]: in experiment [1], the fold induction at 0.4 µM is greater than 5. In addition, the IC50 in experiment [2] was 10 to 30 nM.

As to `CC[C@@H]1CN(Cc2cc(C(CC(=O)O)c3ccc4c(nnn4C)c3C)cc3c2CCC3)S(=O)(=O)c2ccc(C)nc2O1` (stereo partly drawn) [Example 11, 3-(1,4-Dimethyl-1H-benzotriazol-5-yl)-3-(7-{[(4R)-4-ethyl-7-methyl-1,1-dioxido-3,4-dihydro-2H-pyrido[2,3-b][1,4,5]oxathiazepin-2-yl]methyl}-2,3-dihydro-1H-inden-5-yl)propanoic acid], the fold induction at 0.4 µM in experiment [1] is greater than 5. Also, the IC50 in experiment [2] fell in the range of 10 to 30 nM.

For `CC[C@@H]1CN(Cc2cc(C(CC(=O)O)c3ccc4c(nnn4C)c3C)cc3c2CCC3)S(=O)(=O)c2ccccc2O1` (stereo partly drawn) [Example 12, 3-(1,4-Dimethyl-1H-benzotriazol-5-yl)-3-(7-{[(4R)-4-ethyl-1,1-dioxido-3,4-dihydro-2H-5,1,2-benzoxathiazepin-2-yl]methyl}-2,3-dihydro-1H-inden-5-yl)propanoic acid], the fold induction at 0.4 µM in experiment [1] was greater than 5. This compound had a 50% inhibitory concentration (IC50) in experiment [2] of no more than 10 nM.

Take `CC[C@@H]1CN(Cc2cc(C(CC(=O)O)c3ccc4c(nnn4C)c3C)cc3c2CCC3)S(=O)(=O)c2cc(Cl)c(F)cc2O1` (stereo partly drawn) [Example 13, 3-(7-{[(4R)-8-Chloro-4-ethyl-7-fluoro-1,1-dioxido-3,4-dihydro-2H-5,1,2-benzoxathiazepin-2-yl]methyl}-2,3-dihydro-1H-inden-5-yl)-3-(1,4-dimethyl-1H-benzotriazol-5-yl)propanoic acid]: the fold induction at 0.4 µM in experiment [1] is greater than 5. Further, the IC50 in experiment [2] is no more than 10 nM.

For `CC[C@@H]1CN(Cc2cc(C(CC(=O)O)c3ccc4c(nnn4C)c3C)cc3c2CCC3)S(=O)(=O)c2cc(Cl)ccc2O1` (stereo partly drawn) [Example 14, 3-(7-{[(4R)-8-Chloro-4-ethyl-1,1-dioxido-3,4-dihydro-2H-5,1,2-benzoxathiazepin-2-yl]methyl}-2,3-dihydro-1H-inden-5-yl)-3-(1,4-dimethyl-1H-benzotriazol-5-yl)propanoic acid], in experiment [1], the fold induction at 0.4 µM is greater than 5. In experiment [2], this compound had an IC50 of 10 to 30 nM.

As for `CC[C@@H]1CN(Cc2cc(C(CC(=O)O)c3ccc4c(nnn4C)c3C)cc3c2CCC3)S(=O)(=O)c2cccc(Cl)c2O1` (stereo partly drawn) [Example 16, 3-(7-{[(4R)-6-Chloro-4-ethyl-1,1-dioxido-3,4-dihydro-2H-5,1,2-benzoxathiazepin-2-yl]methyl}-2,3-dihydro-1H-inden-5-yl)-3-(1,4-dimethyl-1H-benzotriazol-5-yl)propanoic acid], the fold induction at 0.4 µM in experiment [1] is greater than 5. Besides, in experiment [2], the IC50 was no more than 10 nM.

As to `CC[C@@H]1CN(Cc2cc(C(CC(=O)O)c3ccc4c(nnn4C)c3C)cc3c2CCC3)S(=O)(=O)c2c(Cl)cccc2O1` (stereo partly drawn) [Example 17, 3-(7-{[(4R)-9-Chloro-4-ethyl-1,1-dioxido-3,4-dihydro-2H-5,1,2-benzoxathiazepin-2-yl]methyl}-2,3-dihydro-1H-inden-5-yl)-3-(1,4-dimethyl-1H-benzotriazol-5-yl)propanoic acid], the fold induction at 0.4 µM in experiment [1] was in the range of 3 to 5. For the same compound, in experiment [2], the concentration for half-maximal inhibition (IC50) is no more than 10 nM.

`CCOc1cc2c(cc1Cl)S(=O)(=O)N(Cc1cc(C(CC(=O)O)c3ccc4c(nnn4C)c3C)cc3c1CCC3)C[C@@H](CC)O2` (stereo partly drawn) [Example 18, 3-(7-{[(4R)-8-Chloro-7-ethoxy-4-ethyl-1,1-dioxido-3,4-dihydro-2H-5,1,2-benzoxathiazepin-2-yl]methyl}-2,3-dihydro-1H-inden-5-yl)-3-(1,4-dimethyl-1H-benzotriazol-5-yl)propanoic acid]: in experiment [1], the fold induction at 0.4 µM is 3 to 5. Besides, the 50% inhibitory concentration (IC50) in experiment [2] lay in the range of 30 to 100 nM.

With `CCOc1ccc2c(n1)O[C@H](CC)CN(Cc1cc(C(CC(=O)O)c3ccc4c(nnn4C)c3C)cc3ccsc13)S2(=O)=O` (stereo partly drawn) [Example 19, 3-(1,4-Dimethyl-1H-benzotriazol-5-yl)-3-(7-{[(4R)-7-ethoxy-4-ethyl-1,1-dioxido-3,4-dihydro-2H-pyrido[2,3-b][1,4,5]oxathiazepin-2-yl]methyl}-1-benzothiophen-5-yl)propanoic acid], the fold induction at 0.4 µM in experiment [1] is greater than 5. Further, the IC50 in experiment [2] is 10 to 30 nM.

In the case of `CC[C@@H]1CN(Cc2cc([C@@H](CC(=O)O)c3ccc4c(nnn4C)c3C)cc3c2CCC3)S(=O)(=O)c2cc(Cl)c(F)cc2O1` [Example 20, (3R)-3-(7-{[(4R)-8-Chloro-4-ethyl-7-fluoro-1,1-dioxido-3,4-dihydro-2H-5,1,2-benzoxathiazepin-2-yl]methyl}-2,3-dihydro-1H-inden-5-yl)-3-(1,4-dimethyl-1H-benzotriazol-5-yl)propanoic acid], in experiment [1], the fold induction at 0.4 µM was greater than 5. This compound also registered an IC50 in experiment [2] of 10 to 30 nM.

Consider `CC[C@@H]1CN(Cc2cc([C@H](CC(=O)O)c3ccc4c(nnn4C)c3C)cc3c2CCC3)S(=O)(=O)c2cc(Cl)c(F)cc2O1` [Example 21, (3S)-3-(7-{[(4R)-8-Chloro-4-ethyl-7-fluoro-1,1-dioxido-3,4-dihydro-2H-5,1,2-benzoxathiazepin-2-yl]methyl}-2,3-dihydro-1H-inden-5-yl)-3-(1,4-dimethyl-1H-benzotriazol-5-yl)propanoic acid], for which the fold induction at 0.4 µM in experiment [1] is greater than 5. This compound also had an IC50 in experiment [2] of no more than 10 nM.

With `CC[C@@H]1CN(Cc2cc([C@@H](CC(=O)O)c3ccc4c(nnn4C)c3C)cc3ccsc23)S(=O)(=O)c2cc(Cl)c(F)cc2O1` [Example 22, (3R)-3-(7-{[(4R)-8-Chloro-4-ethyl-7-fluoro-1,1-dioxido-3,4-dihydro-2H-5,1,2-benzoxathiazepin-2-yl]methyl}-1-benzothiophen-5-yl)-3-(1,4-dimethyl-1H-benzotriazol-5-yl)propanoic acid], the fold induction at 0.4 µM in experiment [1] was greater than 5. In experiment [2], this compound displayed an IC50 of no more than 10 nM.

With `CC[C@@H]1CN(Cc2cc([C@H](CC(=O)O)c3ccc4c(nnn4C)c3C)cc3ccsc23)S(=O)(=O)c2cc(Cl)c(F)cc2O1` [Example 23, (3S)-3-(7-{[(4R)-8-Chloro-4-ethyl-7-fluoro-1,1-dioxido-3,4-dihydro-2H-5,1,2-benzoxathiazepin-2-yl]methyl}-1-benzothiophen-5-yl)-3-(1,4-dimethyl-1H-benzotriazol-5-yl)propanoic acid], in experiment [1], the fold induction at 0.4 µM is greater than 5. In addition, the IC50 in experiment [2] was no more than 10 nM.

Turning to `CC[C@@H]1CN(Cc2cc(C(CC(=O)O)c3ccc4c(nnn4C)c3C)cc3c2CCC3)S(=O)(=O)c2cccnc2O1` (stereo partly drawn) [Example 24, 3-(1,4-Dimethyl-1H-benzotriazol-5-yl)-3-(7-{[(4R)-4-ethyl-1,1-dioxido-3,4-dihydro-2H-pyrido[2,3-b][1,4,5]oxathiazepin-2-yl]methyl}-2,3-dihydro-1H-inden-5-yl)propanoic acid], the fold induction at 0.4 µM in experiment [1] is greater than 5. The 50% inhibitory concentration (IC50) in experiment [2] was 10 to 30 nM.

Take `CC[C@@H]1CN(Cc2cc(C(CC(=O)O)c3ccc4c(nnn4C)c3C)cc3c2CCC3)S(=O)(=O)c2cc(C(F)(F)F)cnc2O1` (stereo partly drawn) [Example 25, 3-(1,4-Dimethyl-1H-benzotriazol-5-yl)-3-(7-{[(4R)-4-ethyl-1,1-dioxido-8-(trifluoromethyl)-3,4-dihydro-2H-pyrido[2,3-b][1,4,5]oxathiazepin-2-yl]methyl}-2,3-dihydro-1H-inden-5-yl)propanoic acid]: the fold induction at 0.4 µM in experiment [1] is greater than 5. Further, the IC50 in experiment [2] was 10 to 30 nM.

On to `CC[C@@H]1CN(Cc2cc(C(CC(=O)O)c3ccc4c(nnn4C)c3C)cc3c2CCC3)S(=O)(=O)c2ccc3ccccc3c2O1` (stereo partly drawn) [Example 26, 3-(1,4-Dimethyl-1H-benzotriazol-5-yl)-3-(7-{[(2R)-2-ethyl-5,5-dioxido-2,3-dihydro-4H-naphtho[1,2-b][1,4,5]oxathiazepin-4-yl]methyl}-2,3-dihydro-1H-inden-5-yl)propanoic acid], for which the fold induction at 0.4 µM in experiment [1] was greater than 5. Further, the IC50 in experiment [2] lay in the range of 30 to 100 nM.
